According to PMC11532403 (Signal Transduction and Targeted Therapy, 2024):
Like-named read-outs stand apart in the source and are kept apart here.

How the values were obtained:
RET alterations in ctDNA = assay: ctDNA profiling (1021-gene NGS panel); format: in vivo, human; conditions: Cycle 1 Day 28, of 23 patients
Method: A retrospective analysis of circulating tumor DNA (ctDNA) profiling was performed using longitudinal plasma samples obtained at baseline, Cycle 1 Day 28, and post-progressive disease. At baseline, blood samples from all patients were subjected for NGS. Among them, 67 (54.9%) patients had detectable RET alterations in ctDNA, including KIF5B-RET (51/122, 41.8%), CCDC6-RET (5/122, 4.1%), NCOA4-RET (3/122, 2.5%), RET^M918T mutation (7/122, 5.7%) and other RET variation (1/122, 0.8%).
For molecular profiling, plasma samples were collected at baseline, Cycle 1 Day 28, and post-progressive disease, and the ctDNA were isolated for analysis. Gene alteration status was analyzed at a central laboratory using a validated, commercially available 1021-gene NGS panel (GenePlus, Beijing, China).

RET-driven xenografts = assay: RET-driven xenograft models, overall; format: in vivo, mice; conditions: for Effective tumor suppressant dose (mg/kg): tumor-bearing mice
Method: All procedures relating to animal handling, care, and treatment were performed according to the Beijing Laboratory Animal Management Regulations. 6-week-old male BALB/c nude mice were inoculated subcutaneously into the flank with Baf3-CCDC6-RET^WT (5*10^6 cells/ 0.1 mL/ each), Baf3-CCDC6-RET^M918T (5*10^6 cells/0.1 mL/each), Baf3-CCDC6-RET^V804M (5*10^6 cells/ 0.1 mL/ each), or HEK293T-KIF5B-RET^V804M (5*10^6 cells/ 0.1 mL/ each). Mice were randomized by tumor size into groups of 10 to 12 when tumor volume reached approximately 100-150 mm^3. […] Tumor size and body weight were measured two times each week, and tumor volume was calculated with the following formula: [length × (width)^2]/ 2. Statistical significance was calculated by using two-way ANOVA test to assess the difference in tumor volumes between the control (vehicle-treated) and treatment groups.
Supplementary Figure S1. […] Mice bearing Baf3-CCDC6-RET^WT (a), Baf3-CCDC6-RET^M918T (b) and Baf3-CCDC6-RET^V804M (c) xenograft and time course of treatment. Data represent mean ± standard error of the mean (SEM). There were 12 mice in each group in both models. d, Mice bearing HEK293T-KIF5B-RET^V804M xenograft and time course of treatment. Data represent mean ± SEM. There were 10 mice in each group in this model. […] Statistical analysis was performed using a two-way ANOVA test. *, […]; **, p < 0.01; ***, p < 0.001; ****, p < 0.0001. Abbreviations: bid, bis in die; mc, methyl cellulose; mpk, mg/Kg.

[1] = Plasma protein binding, rapid equilibrium dialysis; format: in vitro ADME; conditions: mouse, read-out: Plasma protein binding rate
[2] = Phase 1 trial: plasma pharmacokinetics; format: in vivo; conditions: human; for AUC(0-t): read-out: AUC0–12 h mean; for AUC(0-inf): read-out: AUCINF_obs mean; for Cmax: read-out: Cmax mean; for MRT inf: read-out: MRTINF_obs mean; for half-life: read-out: T1/2 mean (converted); for Tmax: read-out: Tmax mean
Description: Serial plasma samples were also collected in each patient after the first dose and during multiple-dose administration on Cycle 1 Day 28.

[3] = 20 mg, Cycle 1 Day 1, 20 mg BID (n = 1)
[4] = 20 mg, Cycle 1 Day 1, 20 mg QD (n = 1)
[5] = 40 mg, Cycle 1 Day 1, 40 mg BID (n = 3)
[6] = 80 mg, Cycle 1 Day 1, 80 mg BID (n = 3)
[7] = 120 mg, Cycle 1 Day 1, 120 mg BID (n = 3)
[8] = 160 mg, Cycle 1 Day 1, 160 mg BID (n = 23)
[9] = 160 mg, Cycle 1 Day 28, 160 mg BID (n = 15)

COc1ccc(CN2C3CC2CN(c2ccc(-c4cc(N5CC(C)(O)C5)cn5ncc(C#N)c45)cn2)C3)cn1 [SY-5007, 6-(3-hydroxy-3-methylazetidin-1-yl)-4-(6-(6-((6-methoxypyridin-3-yl)methyl)-3,6-diazabicyclo[3.1.1]heptan-3-yl)pyridin-3-yl)pyrazolo[1,5-a]pyridine-3-carbonitrile]
Patients with complete RET clearance in ctDNA (RET alterations in ctDNA): 21 patients | Minimal effective dose (significant tumor growth inhibition in most models) (RET-driven xenografts; mouse, in vivo): 10 mg/kg BID | Effective tumor suppressant dose (mg/kg) (RET-driven xenografts; daily dose of 3 mg/kg BID): 6(3 mg/kg BID) | Effective tumor suppressant dose (mg/kg) (RET-driven xenografts; daily dose of 6 mg/kg BID): 12(6 mg/kg BID) | fraction unbound [1]: 0.01 | AUC(0-t) [2, 3]: 1580 ng·h/mL | AUC(0-inf) [2, 3]: 3830 ng·h/mL | Cmax [2, 3]: 214 ng/mL | MRT inf [2, 3]: 16.7 h | half-life [2, 3]: 12.1 h | Tmax [2, 3]: 4 h | AUC(0-t) [2, 4]: 2230 ng·h/mL | AUC(0-inf) [2, 4]: 2410 ng·h/mL | Cmax [2, 4]: 391 ng/mL | MRT inf [2, 4]: 7.7 h | half-life [2, 4]: 6.8 h | Tmax [2, 4]: 1 h | AUC(0-t) [2, 5]: 2720 ng·h/mL | AUC(0-inf) [2, 5]: 3760 ng·h/mL | Cmax [2, 5]: 714 ng/mL | MRT inf [2, 5]: 8.9 h | half-life [2, 5]: 8.7 h | Tmax [2, 5]: 0.5 h | AUC(0-t) [2, 6]: 5150 ng·h/mL | AUC(0-inf) [2, 6]: 7220 ng·h/mL | Cmax [2, 6]: 1450 ng/mL | MRT inf [2, 6]: 12.4 h | half-life [2, 6]: 37.8 h | Tmax [2, 6]: 0.5 h | AUC(0-t) [2, 7]: 9270 ng·h/mL | AUC(0-inf) [2, 7]: 14100 ng·h/mL | Cmax [2, 7]: 2470 ng/mL | MRT inf [2, 7]: 11.6 h | half-life [2, 7]: 44.4 h | Tmax [2, 7]: 0.5 h | AUC(0-t) [2, 8]: 16700 ng·h/mL | AUC(0-inf) [2, 8]: 21300 ng·h/mL | Cmax [2, 8]: 3470 ng/mL | MRT inf [2, 8]: 8.2 h | half-life [2, 8]: 10.8 h | Tmax [2, 8]: 1 h | AUC(0-t) [2, 9]: 36800 ng·h/mL | AUC(0-inf) [2, 9]: 67200 ng·h/mL | Cmax [2, 9]: 4730 ng/mL | MRT inf [2, 9]: 13.9 h | half-life [2, 9]: 9 h
